{"source": "patent US4505853A", "about": "“Enzyme-resistant immunomodulatory peptides” (Ortho Pharmaceutical Corporation, priority 1983, dated 1985)", "key": {"[1]": {"tested_on": "thymopoeitin receptor site (membrane glycoprotein of CEM cells)", "conditions": "2.3×10^-10 M of 125I-TP, 4 g of binding protein, incubation 12 h"}, "[2]": {"molecular_target": "T1, porcine LAPcytosol (Leucine Aminopeptidase) (Sus scrofa, UniProt P28839)", "T1 sequence (P28839 1-519)": "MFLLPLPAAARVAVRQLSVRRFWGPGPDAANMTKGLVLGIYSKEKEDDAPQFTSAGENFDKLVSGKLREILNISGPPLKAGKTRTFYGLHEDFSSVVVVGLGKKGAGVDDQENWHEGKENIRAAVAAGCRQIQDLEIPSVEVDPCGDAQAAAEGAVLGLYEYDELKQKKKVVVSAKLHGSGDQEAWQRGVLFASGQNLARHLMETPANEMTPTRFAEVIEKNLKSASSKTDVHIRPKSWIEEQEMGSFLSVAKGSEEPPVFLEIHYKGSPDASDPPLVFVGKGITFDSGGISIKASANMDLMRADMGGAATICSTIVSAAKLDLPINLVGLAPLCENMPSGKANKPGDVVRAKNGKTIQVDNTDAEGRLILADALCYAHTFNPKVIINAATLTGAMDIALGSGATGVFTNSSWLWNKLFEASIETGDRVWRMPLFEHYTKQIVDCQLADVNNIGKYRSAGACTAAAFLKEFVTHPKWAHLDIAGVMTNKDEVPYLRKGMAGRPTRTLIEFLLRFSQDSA", "assay": "Stability of peptides against leucine aminopeptidase", "format": "in vitro ADME", "conditions": "1 × 10^-3 M peptide and 3 units/ml porcine LAPcytosol in 50 mM Tris pH 8.5 buffer with 5 mM MgCl2 at 37°", "method": "(§1) It has been determined that the half-life of thymopentin (thymopoeitin fragment 32-36) in serum is approximately one minute.\n*1 × 10^-3 M peptide and 3 units/ml porcine LAPcytosol in 50 mM\nTris pH 8.5 buffer with 5 mM MgCl2 at 37°"}, "[3]": {"assay": "Stability of peptides against human serum", "format": "in vitro ADME", "conditions": "1 μg/ml peptide in fresh human serum at 37°", "method": "as §1\n*1 μg/ml peptide in fresh human serum at 37°"}, "[4]": {"molecular_target": "T2, bovine carboxypeptidase A (Bos taurus, UniProt P00730)", "T2 sequence (P00730 111-419)": "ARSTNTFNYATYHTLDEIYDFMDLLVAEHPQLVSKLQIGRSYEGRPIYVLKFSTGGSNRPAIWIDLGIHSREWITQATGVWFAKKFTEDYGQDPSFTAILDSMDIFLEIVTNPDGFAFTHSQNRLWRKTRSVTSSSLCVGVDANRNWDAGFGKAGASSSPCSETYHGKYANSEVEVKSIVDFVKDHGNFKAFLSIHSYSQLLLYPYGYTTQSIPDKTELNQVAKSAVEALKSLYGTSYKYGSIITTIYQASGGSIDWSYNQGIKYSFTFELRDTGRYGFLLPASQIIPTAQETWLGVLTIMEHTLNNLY", "assay": "Stability of peptides against carboxypeptidase A", "format": "in vitro ADME", "conditions": "1 × 10^-3 M peptide and 0.05 units/ml bovine carboxypeptidase in pH 8.5 borate buffer at 37°", "method": "as §1\n*1 × 10^-3 M peptide and 0.05 units/ml bovine carboxypeptidase\nin pH 8.5 borate buffer at 37°"}, "[5]": {"assay": "Enzymatic degradation / half-life in serum", "format": "in vitro ADME", "description": "as §1"}, "Prothymocytes (Thy-1^-)": {"tested_on": "Prothymocytes (Thy-1^-)", "assay": "Induction assay, Thy-1+ T cells", "format": "cell-based", "conditions": "B6-lyb-2.1 congenic mouse spleen cells, 3 hrs with inducer; controls without inducer <5% induced cells", "method": "(§2) The compounds of the invention were tested following the induction assay procedure set out in Scheid, et al., J. Exp. Med. 147: 1727-1743 (1978) and also following a receptor assay procedure designed to measure displacement of radiolabelled thymopoeitin from a receptor site by the test peptides. A positive result on the induction assay indicates the ability of the test peptide to mimic the ability of thymopoeitin or splenin to induce precursor cells to immunocompetent T cells or T cells and B cells, respectively. A positive result on the receptor assay indicates the ability of the test peptide to bind to the thymopoeitin receptor site and thus to mimic thymopoeitin activity. The subject peptides are positive in the induction assay, while those in which X is ASP or D-ASP are also positive in the receptor assay.\n(§3) The peptides of the invention wherein X is ASP or D-ASP are characterized by their ability to induce the selective differentiation of Thy-1^+ T cells (but not Lyb-2^+ B cells). Thy-1 is a differentiation alloantigen present on T cells but not B cells, whereas Lyb-2 is a differentiation alloantigen present on B cells but not T cells. Studies of these peptides in the induction assay in vitro show them to have the same induction specificity as thymopoietin. […]"}, "pro-Lyb-2 cells": {"tested_on": "pro-Lyb-2 cells", "assay": "Induction assay, Lyb-2+ B cells", "format": "cell-based", "conditions": "B6-lyb-2.1 congenic mouse spleen cells, 3 hrs with inducer; controls without inducer <5% induced cells", "method": "as §2, §3"}, "[6]": {"tested_on": "Leucine Amino Peptidase (LAP)", "assay": "Leucine Amino Peptidase (LAP) Degradation, amino acid analysis", "format": "in vitro ADME", "conditions": "Asp, Pro, Val, Tyr, Arg all 0.00", "description": "Leucine Amino Peptidase (LAP) Degradation Asp, 0.00; Pro, 0.00; Val, 0.00; Tyr, 0.00; Arg."}}, "note": "Where a SMILES comes first, the peptide text is derived from it. Where no end group is shown, it is not given here. [ ]: non-standard residue; d: D form. The star is where a group is joined. Ac5c = NC1(C(=O)O)CCCC1; For = O=C*", "data": [{"compound": "C[C@H](N)C(=O)NCC(=O)N[C@H]1CSSC[C@@H](C(=O)O)NC(=O)[C@H](CO)NC(=O)[C@H]([C@@H](C)O)NC(=O)[C@H](Cc2ccccc2)NC(=O)[C@H]([C@@H](C)O)NC(=O)[C@H](CCCCN)NC(=O)[C@H](Cc2c[nH]c3ccccc23)NC(=O)[C@H](Cc2ccccc2)NC(=O)[C@H](Cc2ccccc2)NC(=O)[C@H](CC(N)=O)NC(=O)[C@H](CCCCN)NC1=O", "note": "[somatostatin, reference compound]", "values": [{"measurement": "displacement of 125I-TP / receptor assay result, in words", "setting": "[1]", "value": "no detectable displacement"}]}, {"compound": "ACTH: adrenocorticotropic hormone (SYSMEHFRWGKPVGKKRRPVKVYPNGAEDESAEAFPLEF; Corticotropin; UniProt P01189 138-176, looked up) [reference compound]", "values": [{"measurement": "displacement of 125I-TP / receptor assay result, in words", "setting": "[1]", "value": "no detectable displacement"}]}, {"compound": "β-endorphin: comparison peptide in the receptor assay (YGGFMTSEKSQTPLVTLFKNAIIKNAYKKGE; Beta-endorphin; UniProt P01189 237-267, looked up) [reference compound]", "values": [{"measurement": "displacement of 125I-TP / receptor assay result, in words", "setting": "[1]", "value": "no detectable displacement"}]}, {"compound": "CNC(=O)[C@H](Cc1ccc(O)cc1)NC(=O)[C@@H](NC(=O)[C@H](CC(=O)O)NC(=O)[C@@H]1CCCN1C(=O)[C@H](CCCNC(=N)N)NC(C)=O)C(C)C", "note": "[N-α-acetyl-ARG-PRO-ASP-VAL-TYR-NHCH3, Nα-Acetyl-Arginyl-Prolyl-Aspartyl-Valyl-Tyrosine-N-Methylamide] (Ac-RPDVY-NHMe)", "values": [{"measurement": "displacement of 125I-TP relative to that caused by thymopoietin self-displacement at equivalent concentrations", "setting": "[1]", "value": "≥ 50", "unit": "%"}]}, {"compound": "RPDVY [NH2 --Arg--Pro--Asp--Val--Tyr--OH]", "values": [{"measurement": "Incubation time required for 50% degradation", "setting": "[2]", "value": 230, "unit": "min"}]}, {"compound": "Ac-RPDAY [N-α-acetyl-ARG-PRO-ASP-ALA-TYR-OH, Nα-Acetyl-Arginyl-Prolyl-Aspartyl-Alanyl-Tyrosine]", "values": [{"measurement": "displacement of 125I-TP relative to that caused by thymopoietin self-displacement at equivalent concentrations", "setting": "[1]", "value": "≥ 50", "unit": "%"}]}, {"compound": "RPDVY-NH2 [NH2 --Arg--Pro--Asp--Val--Tyr--NH2, Arginyl-Prolyl-Aspartyl-Valyl-Tyrosinamide]", "values": [{"measurement": "Incubation time required for 50% degradation", "setting": "[3]", "value": "> 20", "unit": "min"}, {"measurement": "displacement of 125I-TP relative to that caused by thymopoietin self-displacement at equivalent concentrations", "setting": "[1]", "value": "≥ 50", "unit": "%"}, {"measurement": "Incubation time required for 50% degradation", "setting": "[4]", "value": "> 450", "unit": "min"}]}, {"compound": "CRF: corticotropin-releasing factor (SEEPPISLDLTFHLLREVLEMARAEQLAQQAHSNRKLMEII; ends and bridges not checked; UniProt P06850 154-194, looked up) [reference compound]", "values": [{"measurement": "displacement of 125I-TP / receptor assay result, in words", "setting": "[1]", "value": "no detectable displacement"}]}, {"compound": "growth hormone: comparison peptide in the receptor assay [reference compound]", "values": [{"measurement": "displacement of 125I-TP / receptor assay result, in words", "setting": "[1]", "value": "no detectable displacement"}]}, {"compound": "Ac-RPDVY [N--Acetyl-Arg--Pro--Asp--Val--Tyr--OH, Nα-Acetyl-Arginyl-Prolyl-Aspartyl-Valyl-Tyrosine]", "values": [{"measurement": "Incubation time required for 50% degradation", "setting": "[3]", "value": 38, "unit": "min"}, {"measurement": "displacement of 125I-TP relative to that caused by thymopoietin self-displacement at equivalent concentrations", "setting": "[1]", "value": "≥ 50", "unit": "%"}]}, {"compound": "RKEVY [Splenopentin]", "values": [{"measurement": "susceptibility to enzymatic degradation", "setting": "[5]", "value": "highly susceptible to enzymatic degradation"}]}, {"compound": "CC(C)[C@H](NC(=O)[C@H](CC(=O)O)NC(=O)[C@@H]1CCCN1C(=O)[C@H](CCCNC(=N)N)NC=O)C(=O)N[C@@H](Cc1ccc(O)cc1)C(=O)O", "note": "[N-α-formyl-ARG-PRO-ASP-VAL-TYR-OH, N^α -Formyl-Arginyl-Prolyl-Aspartyl-Valyl-Tyrosine] (For-RPDVY-OH)", "values": [{"measurement": "displacement of 125I-TP relative to that caused by thymopoietin self-displacement at equivalent concentrations", "setting": "[1]", "value": "≥ 50", "unit": "%"}]}, {"compound": "YRKDV [NH2 -TYR-ARG-LYS-ASP-VAL-OH]", "values": [{"measurement": "induction of Thy-1^+ cells (T cells)", "setting": "Prothymocytes (Thy-1^-)", "value": "no induction"}, {"measurement": "induction of Lyb-2.1^+ cells (B cells)", "setting": "pro-Lyb-2 cells", "value": "no induction"}]}, {"compound": "Ac-RPDEY [N-α-acetyl-ARG-PRO-ASP-GLU-TYR-OH, N^α -Acetyl-Arginyl-Prolyl-Aspartyl-Glutamyl-Tyrosine]", "values": [{"measurement": "displacement of 125I-TP relative to that caused by thymopoietin self-displacement at equivalent concentrations", "setting": "[1]", "value": "≥ 50", "unit": "%"}]}, {"compound": "RKDVY [NH2 --Arg--Lys--Asp--Val--Tyr--OH, reference compound]", "values": [{"measurement": "Incubation time required for 50% degradation", "setting": "[2]", "value": 15, "unit": "min"}, {"measurement": "half-life in serum", "setting": "[5]; serum", "value": "approximately one"}, {"measurement": "Incubation time required for 50% degradation", "setting": "[3]", "value": 1.5, "unit": "min"}, {"measurement": "Incubation time required for 50% degradation", "setting": "[4]", "value": 18, "unit": "min"}]}, {"compound": "CC(=O)N[C@@H](CCCNC(=N)N)C(=O)N1CCC[C@H]1C(=O)N[C@@H](CC(=O)O)C(=O)N[C@H](C(=O)N[C@H](Cc1ccc(O)cc1)C(=O)O)C(C)C", "note": "[IX, Nα-Acetyl-Arginyl-Prolyl-Aspartyl-Valyl-D-Tyrosine] (Ac-RPDV[dY]-OH)", "values": [{"measurement": "amino acids liberated by Leucine Amino Peptidase (LAP)", "setting": "[6]", "value": "no liberated amino acids were detected"}]}, {"compound": "Ac-RPDQY [N-α-acetyl-ARG-PRO-ASP-GLN-TYR-OH, Nα-acetyl-Arginyl-Prolyl-Aspartyl-Glutaminyl-Tyrosine]", "values": [{"measurement": "displacement of 125I-TP relative to that caused by thymopoietin self-displacement at equivalent concentrations", "setting": "[1]", "value": "≥ 50", "unit": "%"}]}, {"compound": "Ac-RPDVY-NH2 [N--Acetyl-Arg--Pro--Asp--Val--Tyr--NH2, N^α -acetyl-Arginyl-Prolyl-Aspartyl-Valyl-Tyrosine amide]", "values": [{"measurement": "Incubation time required for 50% degradation", "setting": "[2]", "value": "> 1400", "unit": "min"}, {"measurement": "Degradation in human serum, in words", "setting": "[3]; at 30 minutes", "value": "no degradation"}, {"measurement": "displacement of 125I-TP relative to that caused by thymopoietin self-displacement at equivalent concentrations", "setting": "[1]", "value": "≥ 50", "unit": "%"}, {"measurement": "Incubation time required for 50% degradation", "setting": "[4]", "value": "> 1500", "unit": "min"}]}, {"compound": "CC(C)[C@H](NC(=O)[C@H](CC(=O)O)NC(=O)C1(NC(=O)[C@@H](N)CCCNC(=N)N)CCCC1)C(=O)N[C@@H](Cc1ccc(O)cc1)C(=O)O", "note": "[NH2 --Arg--Cle--Asp--Val--Tyr--OH, Arginyl-Cycloleucyl-Aspartyl-Valyl-Tyrosine] (H-R[Ac5c]DVY-OH)", "values": [{"measurement": "Incubation time required for 50% degradation", "setting": "[2]", "value": "> 1400", "unit": "min"}]}, {"compound": "ubiquitin [reference compound]", "values": [{"measurement": "displacement of 125I-TP / receptor assay result, in words", "setting": "[1]", "value": "no detectable displacement"}]}]}
